Test results reported in US10596216B2, “Use of a Withania extract for the treatment of amyloid-related diseases” (Ethnodyne, priority 2015, dated 2020).

Test system: rat primary cortical cultures
Test: Neuroprotective effect following exposure to glutamate (Example 12)
Assay type: cell-based
Details: glutamate 40 μM, 20 min, primary cortical neuron culture
Procedure: This study investigated the neuroprotective effect of the composition WEB-2 on rat primary cortical cultures following exposure to glutamate (40 μM, 20 min application), an in vitro AD model.
Pregnant Wistar females rat (JanvierLabs, France) at 15 days of gestation were killed by cervical dislocation. The foetuses were prepared as in example 11.
Once obtained, the cells were seeded at a density of 30,000 per well in 96-well plates precoated with poly-L-lysine (Batch: 3102256, Corning Biocoat) and were cultured at 37° C. in an air (95%)-CO2 (5%) incubator. The medium was changed every 2 days. The cortical neurons were intoxicated with glutamate solution.
On day 13 after culture, glutamate (Batch: 061M0030V, Sigma) was added into cell culture to a final concentration of 40 μM diluted in control medium for 20 min. After 20 min, the cells were washed-out and new fresh medium containing or not WEB-2 was added for 48 h additional time. […]
The immunolabeled cultures were automatically examined with ImageXpress equipped with a LED at ×20 magnification. For each condition (6 culture wells), 30 automatically fields per well (representing ˜80% of the total surface of the well) were analyzed. The total number of neurons and neurite length were automatically analyzed using MetaXpress software.

N[C@@H](CCC(=O)O)C(=O)O [Glutamate, glutamate]
neurite network loss induced: neurite network loss
neuronal death induced: significant neuronal death
